For 6 compounds, Ki results are on record in ChEMBL document CHEMBL3997822, “Asymmetric total synthesis of tetrahydroprotoberberine derivatives and evaluation of their binding affinities at dopamine receptors” (Bioorg Med Chem Lett, 2017).

Assay [1] addresses T1, D(4) dopamine receptor (Homo sapiens, UniProt P21917).
T1 sequence (P21917 whole entry): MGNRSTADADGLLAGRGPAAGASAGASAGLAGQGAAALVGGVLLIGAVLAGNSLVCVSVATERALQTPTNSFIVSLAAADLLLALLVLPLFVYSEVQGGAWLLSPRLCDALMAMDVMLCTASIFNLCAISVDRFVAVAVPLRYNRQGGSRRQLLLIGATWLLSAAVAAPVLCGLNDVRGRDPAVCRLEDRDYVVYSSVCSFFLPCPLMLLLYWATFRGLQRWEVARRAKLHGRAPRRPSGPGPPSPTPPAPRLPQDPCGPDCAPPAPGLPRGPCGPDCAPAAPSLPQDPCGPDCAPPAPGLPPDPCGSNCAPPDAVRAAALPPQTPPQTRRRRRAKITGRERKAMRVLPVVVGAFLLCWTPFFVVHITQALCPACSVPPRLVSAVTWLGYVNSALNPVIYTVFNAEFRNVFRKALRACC
Put plainly: Displacement of [3H]N-methylspiperone from human dopamine D4 receptor after 1 hr.

Assay [2] has as its target T2, D(2) dopamine receptor (Homo sapiens, UniProt P14416). Put plainly: Displacement of [3H]N-methylspiperone from human dopamine D2 receptor after 1 hr.
In assay [3] the target is T3, D(1B) dopamine receptor (Homo sapiens, UniProt P21918). Put plainly: Displacement of [3H]SCH23390 from human dopamine D5 receptor after 1 hr.
T3 sequence (P21918 whole entry): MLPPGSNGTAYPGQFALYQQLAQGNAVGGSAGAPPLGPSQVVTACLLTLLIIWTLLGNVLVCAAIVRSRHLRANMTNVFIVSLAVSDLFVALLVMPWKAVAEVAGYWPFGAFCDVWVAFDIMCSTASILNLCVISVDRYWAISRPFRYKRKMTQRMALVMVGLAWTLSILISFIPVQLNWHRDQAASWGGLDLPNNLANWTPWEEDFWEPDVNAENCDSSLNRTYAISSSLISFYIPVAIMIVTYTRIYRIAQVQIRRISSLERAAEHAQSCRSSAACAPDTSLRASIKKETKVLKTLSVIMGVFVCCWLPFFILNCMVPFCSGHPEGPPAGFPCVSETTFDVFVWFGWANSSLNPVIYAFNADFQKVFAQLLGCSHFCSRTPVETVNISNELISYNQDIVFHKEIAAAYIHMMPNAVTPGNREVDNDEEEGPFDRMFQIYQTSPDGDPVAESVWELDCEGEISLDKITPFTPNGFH
Assay [4] has as its target T4, D(3) dopamine receptor (Homo sapiens, UniProt P35462). Put plainly: Displacement of [3H]N-methylspiperone from human dopamine D3 receptor after 1 hr.
The target in assay [5] is T5, D(1A) dopamine receptor (Homo sapiens, UniProt P21728). Put plainly: Displacement of [3H]SCH23390 from human dopamine D1 receptor after 1 hr.
T5 sequence (P21728 whole entry): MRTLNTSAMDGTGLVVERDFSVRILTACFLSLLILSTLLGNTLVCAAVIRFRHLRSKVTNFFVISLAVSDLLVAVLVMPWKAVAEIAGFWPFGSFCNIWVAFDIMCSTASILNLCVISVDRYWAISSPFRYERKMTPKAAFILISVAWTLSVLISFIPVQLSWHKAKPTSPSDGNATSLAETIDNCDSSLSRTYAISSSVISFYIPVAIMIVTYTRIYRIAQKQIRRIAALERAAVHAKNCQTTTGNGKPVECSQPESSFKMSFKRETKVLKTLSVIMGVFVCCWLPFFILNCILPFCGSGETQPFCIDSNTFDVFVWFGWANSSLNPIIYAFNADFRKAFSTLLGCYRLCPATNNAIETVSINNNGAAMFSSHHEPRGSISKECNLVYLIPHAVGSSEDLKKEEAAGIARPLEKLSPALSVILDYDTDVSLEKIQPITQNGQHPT
The target in assay [6] is T1, D(4) dopamine receptor. Put plainly: Displacement of [3H]SCH23390 from human dopamine D4 receptor expressed in HEK293 cells after 1 hr. It counts as cell-based.
Assay [7] has as its target T4, D(3) dopamine receptor. Put plainly: biochemical.
Assay [8] deals with T5, D(1A) dopamine receptor. Put plainly: Displacement of [3H]SCH23390 from human 3HA-tagged dopamine D1 receptor expressed in HEK293 cells after 1 hr. The assay is classed as cell-based.
Assay [9] deals with T3, D(1B) dopamine receptor. As to conditions: hek293.
Assay [10] addresses T2, D(2) dopamine receptor. Put plainly: Displacement of [3H]SCH23390 from human FLAG-tagged dopamine D2 receptor expressed in HEK293 cells after 1 hr. It counts as cell-based.

Molecules are shown by their SMILES.

T4 sequence (P35462 whole entry): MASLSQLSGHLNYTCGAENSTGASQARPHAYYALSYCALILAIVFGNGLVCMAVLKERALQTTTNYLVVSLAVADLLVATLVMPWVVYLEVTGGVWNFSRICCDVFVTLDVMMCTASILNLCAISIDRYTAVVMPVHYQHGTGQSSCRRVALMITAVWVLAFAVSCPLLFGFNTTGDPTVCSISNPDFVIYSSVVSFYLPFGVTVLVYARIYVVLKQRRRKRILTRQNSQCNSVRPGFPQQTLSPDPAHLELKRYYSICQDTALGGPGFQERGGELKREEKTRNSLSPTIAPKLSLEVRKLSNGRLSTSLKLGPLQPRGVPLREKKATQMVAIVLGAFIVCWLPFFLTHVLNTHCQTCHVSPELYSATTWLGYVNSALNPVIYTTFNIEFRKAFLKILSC
T2 sequence (P14416 whole entry): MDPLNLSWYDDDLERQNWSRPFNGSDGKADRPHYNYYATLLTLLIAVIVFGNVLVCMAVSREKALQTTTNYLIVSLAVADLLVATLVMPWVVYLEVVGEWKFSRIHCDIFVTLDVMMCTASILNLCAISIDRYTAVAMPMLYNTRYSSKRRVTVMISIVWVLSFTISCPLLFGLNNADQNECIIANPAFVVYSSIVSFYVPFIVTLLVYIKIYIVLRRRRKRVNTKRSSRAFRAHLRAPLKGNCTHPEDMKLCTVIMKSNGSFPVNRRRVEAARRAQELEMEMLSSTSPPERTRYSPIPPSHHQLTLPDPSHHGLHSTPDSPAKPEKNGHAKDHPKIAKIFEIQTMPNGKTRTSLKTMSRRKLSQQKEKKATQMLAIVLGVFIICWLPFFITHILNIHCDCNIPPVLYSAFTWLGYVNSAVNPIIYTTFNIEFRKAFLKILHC

As to `COc1c(O)ccc2c1CN1CCc3cc4c(cc3[C@@H]1C2)OCO4`, the Ki at D(4) dopamine receptor [1] was 1980 nM; on D(2) dopamine receptor [2], 49.2 nM; at D(1B) dopamine receptor [3], 15.1 nM; on D(3) dopamine receptor [4], 82.4 nM; on D(1A) dopamine receptor [5], 6.5 nM.
The like results for `COc1ccc2c(c1OC)CN1CCc3cc4c(cc3[C@@H]1C2)OCO4` [CANADINE] were, in that order, 486 nM, 80.2 nM, 62.1 nM, 433 nM and 48.6 nM.
Consider `COc1cc2c(cc1OC)[C@@H]1Cc3ccc(O)c(OC)c3CN1CC2`, for which the Ki at D(4) dopamine receptor [1] was above 1000 nM; at D(2) dopamine receptor [2] it was 533 nM; on D(1B) dopamine receptor [3], 242 nM; on D(3) dopamine receptor [4], 1710 nM; at D(1A) dopamine receptor [5], 107 nM.
The like results for `COc1cc2c(cc1O)CCN1Cc3c(ccc(OC)c3OC)C[C@@H]21` were, in that order, above 1000 nM, 42.4 nM, 313 nM, 262 nM and 199 nM.
In the case of `COc1cc2c(cc1O)[C@@H]1Cc3ccc(OC)c(OC)c3CN1CC2`, the Ki was 77.4 nM on D(4) dopamine receptor [6], 37.3 nM on D(3) dopamine receptor [7] and […] on D(1A) dopamine receptor [8].
Regarding `COc1cc2c(cc1OC)[C@@H]1Cc3ccc(OC)c(OC)c3CN1CC2` [TETRAHYDROPALMATINE], the Ki at D(4) dopamine receptor [6] was above 1000 nM; on D(1B) dopamine receptor [9] it was 305 nM; on D(2) dopamine receptor [10], 1120 nM; at D(1A) dopamine receptor [8] (hek293) it was 153 nM.
